According to PMC9147171, “Pharmacokinetic/Pharmacodynamic Evaluation of a New Purine-2,6-Dione Derivative in Rodents with Experimental Autoimmune Diseases” (Pharmaceutics, 2022):

Legend:
[1] = target: T1, hrPDE3A (Homo sapiens, UniProt Q14432); experiment: PDE-Glo catalytic activity assay, PDE3A; type: biochemical
T1 construct: purchased SignalChem, Richmond, Canada
Method: The inhibitory activity of compound 34 against hrPDE1B and hrPDE3A (SignalChem, Richmond, Canada) was assessed using the PDE-Glo™ catalytic activity assay (Promega Corporation, Madison, WI, USA). It was performed on 384-well plates according to manufacturer’s instructions with slight modifications. Solutions of both PDEs were prepared by diluting their stock solutions in the PDE-Glo™ Reaction Buffer and aliquots of 6.5 μL were added to the wells. A stock solution of the tested compound was prepared in DMSO at a concentration of 10 mM and serially diluted with the same solvent. The obtained solutions were further diluted with PDE-Glo™ Reaction Buffer (1:5, v/v) and aliquots of 1 μL were transferred to the respective wells. Then, the mixture was incubated for 10 min at 30 °C on a heated plate shaker (Grant Instruments, Cambridge, United Kingdom). The reaction was started by the addition of 2.5 μL of a 0.2 μM cAMP solution to each well and the plate was incubated for 10 min at 30 °C on a heated plate shaker. Moreover, for each series, respective control reactions were performed: no-substrate, no-enzyme negative control reactions; no-enzyme positive control reactions containing substrate; and no-inhibitor positive control reactions containing both the substrate and PDE. After incubation, the reaction was stopped by adding 2.5 μL of the PDE-Glo™ Termination Buffer. A volume of 2.5 μL of the PDE-Glo™ Detection Buffer was transferred to each well and the plate was incubated for 20 min at room temperature. Finally, an aliquot of 10 μL of the PDE-Glo Kinase® Reagent was added to the wells. The plate was incubated for 10 min at room temperature and luminescence was measured with a luminometer (BMG Labtech, Ortenberg, Germany). For each inhibitor concentration, four independent measurements were performed. The resulting data were expressed as percent of an uninhibited control and plotted against the inhibitor concentration. The IC50 values were estimated by nonlinear regression using ADAPT5 software (BMSR, Los Angeles, CA, USA).

[2] = Pharmacokinetic study in mice, single IP dose, serum; type: in vivo, female C57BL/6 mice; settings: female, mouse
Method: Female Lewis rats and female C57BL/6 mice were administered IP with compound 34 dissolved in vehicle at a dose of 20 and 50 mg·kg^−1, respectively. Rats and mice were sacrificed at different time points (n = 3 per time point) following compound administration by decapitation under deep anesthesia. Thereafter, blood samples were harvested and allowed to clot at room temperature for 20 min and serum was separated by centrifugation at 3000 rpm for 10 min (EBA 12 R, Hettich, Germany). The obtained serum samples were stored at −80 °C until analysis.
Concentrations of compound 34 in rat and murine serum were quantified by an HPLC/UV method. To isolate the investigated compound, 100 μL of serum containing compound 34 or the same volume of blank serum spiked with a standard solution of compound 34, 10 μL of 4-(8-((furan-2-ylmethyl)amino)-1,3-dimethyl-2,6-dioxo-2,3,6,7-tetrahydro-1H-purin-7-yl)-N’-(2-hydroxybenzylidene)butanehydrazide methanol solution was used as an internal standard (IS) at a concentration of 80 μg·mL^−1, and 50 μL of 0.2 M NaOH solution was added. Subsequently, 1 mL of ethyl acetate was added to each sample and extraction was performed for 20 min on a VXR Vibrax shaker (IKA, Germany). Then, the samples were centrifuged (10,000× g, 5 min) on EBA 12 R centrifuge (Hettich, Germany) and the organic layers were collected and transferred to clean tubes. Subsequently, the organic layers were evaporated under a mild stream of nitrogen at 37 °C and the residues were dissolved in 100 μL of mobile phase and subjected to an HPLC analysis. The HPLC system (LaChrom Elite, Merck-Hitachi, Germany) consisted of L-2420 UV-VIS detector, an L-2200 autosampler, and an L-2130 pump. EZChrome Elite v. 3.2 (Merck-Hitachi, Germany) software was used for data acquisition and integration. The analysis was performed at ambient temperature on a LiChrospher 100 RP-18 column (250 × 4 mm) and a LiChroCART (4 × 4 mm) pre-column (Merck, Germany). The mobile phase was composed of acetonitrile mixed with 20 mM KH2PO4 water solution (pH = 4.5) at the ratio of 40:60 (v/v). A flow rate was 1 mL·min^−1 and analytical wavelength was set at 302 nm. The retention times of compound 34 and IS were approximately 6.3 min and 10.6 min. The method was validated according to the FDA Bioanalytical Method Validation Guidance for Industry (2018). The calibration curves constructed by plotting the peak area of the studied compound to the peak area of the IS vs. compound concentrations were linear in the tested concentration range, i.e., from 0.05–10 mg·L^−1 (r > 0.998). The limit of quantification was 0.05 mg·L^−1. […] The assay presented acceptable intra- and inter-assay precision and accuracy (i.e., they were within 15% of the CV and 15% of the nominal concentration, respectively) for all quality control concentrations (0.1, 1, and 5 mg·L^−1). The mean extraction efficiencies of the analyzed compound and the IS were above 80%.
Pharmacokinetics of compound 34 were investigated in rats and mice following single IP administration. One- and two-compartment models with first-order absorption and linear elimination were tested, but only the one-compartment model appropriately described the concentration-time courses of compound 34 in both rat and murine serum. […] The equations of the model are as follows:(1) dA/dt=−ka×A;A0=D×F, (2) Vd×dCp/dt=ka×A−CLT×Cp; Cp0=0 where A is the amount of the drug at the absorption site, ka is the first-order rate constant of drug absorption, D is the dose, F is the bioavailability, Vd is the volume of distribution, CLT is the total clearance, and Cp is the serum concentration of compound 34.

T1 sequence (Q14432 whole entry): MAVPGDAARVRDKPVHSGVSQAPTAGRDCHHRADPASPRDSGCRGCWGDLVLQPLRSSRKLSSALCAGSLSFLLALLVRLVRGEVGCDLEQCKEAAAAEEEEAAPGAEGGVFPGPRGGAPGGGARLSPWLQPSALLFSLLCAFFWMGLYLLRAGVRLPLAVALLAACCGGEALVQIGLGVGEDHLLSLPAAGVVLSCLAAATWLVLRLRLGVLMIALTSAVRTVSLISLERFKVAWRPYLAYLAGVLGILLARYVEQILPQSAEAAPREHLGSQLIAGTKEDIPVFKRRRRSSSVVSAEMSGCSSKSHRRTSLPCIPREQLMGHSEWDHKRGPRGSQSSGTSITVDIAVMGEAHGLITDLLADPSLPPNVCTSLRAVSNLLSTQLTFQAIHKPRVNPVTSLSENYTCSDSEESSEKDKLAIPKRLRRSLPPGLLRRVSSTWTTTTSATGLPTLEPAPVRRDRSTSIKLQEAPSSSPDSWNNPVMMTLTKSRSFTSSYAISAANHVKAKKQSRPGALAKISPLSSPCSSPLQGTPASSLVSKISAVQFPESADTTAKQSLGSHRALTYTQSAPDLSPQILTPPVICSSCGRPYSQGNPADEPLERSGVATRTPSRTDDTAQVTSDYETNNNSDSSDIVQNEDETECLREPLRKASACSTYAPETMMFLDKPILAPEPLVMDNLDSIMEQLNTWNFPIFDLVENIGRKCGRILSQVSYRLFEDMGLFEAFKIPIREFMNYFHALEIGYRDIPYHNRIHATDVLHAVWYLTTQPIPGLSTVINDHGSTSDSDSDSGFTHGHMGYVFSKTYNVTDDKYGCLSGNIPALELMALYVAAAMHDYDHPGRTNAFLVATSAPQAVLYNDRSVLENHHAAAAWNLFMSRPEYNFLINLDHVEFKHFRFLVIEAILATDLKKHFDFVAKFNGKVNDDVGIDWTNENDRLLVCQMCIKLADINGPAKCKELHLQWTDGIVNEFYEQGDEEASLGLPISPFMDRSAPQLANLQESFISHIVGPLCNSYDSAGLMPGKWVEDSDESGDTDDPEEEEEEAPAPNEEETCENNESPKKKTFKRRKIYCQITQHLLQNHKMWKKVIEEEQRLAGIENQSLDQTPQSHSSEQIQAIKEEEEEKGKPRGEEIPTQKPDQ

IC50 ([1]; human recombinant PDE3A, CV% in brackets, read-out: IC50 (µM) Against PDE Isoform (CV%) PDE3A): 0.78 µM | times more potent than GRMS-55 in inhibiting PDE3A ([1]; ratio of IC50 values, vs GRMS-55): 17 times | inhibitory activity against PDE3A, times lower compared to milrinone ([1]; ratio of IC50 values, vs milrinone): about 4 times | absorption half-life ([2]; C57BL/6, serum, 50 mg·kg^−1, IP, solution in DMSO:PEG400:sterile water (10:40:50)): 4.5 min | Vd/F ([2]; C57BL/6, single IP dose 50 mg·kg^−1, serum, one-compartment model, read-out: Vd/F Apparent volume of distribution, Final Estimate (CV%)): 21.7 L/kg | AUC ([2]; C57BL/6, single IP dose 50 mg·kg^−1, serum, read-out: AUC Area under the concentration-time curve, Final Estimate (CV%) (converted)): 818 ng·h/mL | CL/F ([2]; C57BL/6, single IP dose 50 mg·kg^−1, serum, read-out: CLT/F Apparent clearance, Final Estimate (CV%)): 1020 mL/min/kg | Cmax ([2]; C57BL/6, single IP dose 50 mg·kg^−1, serum, read-out: Cmax Maximum serum concentration, Final Estimate (CV%)): 1370 ng/mL | half-life ([2]; C57BL/6, single IP dose 50 mg·kg^−1, serum, read-out: t0.5 Elimination half-life, Final Estimate (CV%)): 14.7 min
SMILES: Cn1c(=O)c2c(nc(NCCc3ccccc3)n2CCCC(=O)NN=Cc2ccc(O)c(O)c2O)n(C)c1=O [Compound 34, 4-(1,3-dimethyl-2,6-dioxo-8-(phenethylamino)-2,3,6,7-tetrahydro-1H-purin-7-yl)-N′-(2,3,4-trihydroxybenzylidene)butanehydrazide]
